How the values were obtained:
MDA-MB-231 cells = test: Cell cycle analysis; assay type: cell-based; conditions: MDA-MB-231, 100 and 250 nM
Experimental: (§1) MDA-MB-231 and T47D cells were seeded into 6-well plates and allow to grow until 60% confluent. The cells were then washed with PBS and the media was replaced with serum-free media overnight. After serum starvation the cells were treated with serum containing media in the presence or absence of 100 and 250 nM THZ1 for 24 and 48 hours. The cells were collected, fixed in ethanol overnight and cell cycle distribution was measured using DAPI on the LSR2 (Beckman-Dickinson).

T47D cells = test: Cell cycle analysis; assay type: cell-based; conditions: 100 and 250 nM, 24 or 48 hours
Experimental: as §1

CN(C)C/C=C/C(=O)Nc1ccc(C(=O)Nc2cccc(Nc3ncc(Cl)c(-c4c[nH]c5ccccc45)n3)c2)cc1 [THZ1]
cell cycle distribution (MDA-MB-231 cells; 24 hours): G1 arrest | cell cycle distribution (MDA-MB-231 cells; 48 hours): increased sub-G1 (apoptotic cell) accumulation | cell cycle distribution (T47D cells): G1 arrest

— US10913983B2, “Sensitivity markers and uses for CDK7 inhibitors in breast cancers” (UNIVERSITY OF SOUTH CAROLINA, priority 2017, dated 2021)
